{"source": "patent US20130085178A1", "about": "“COMPOSITION FOR TREATING BONE DISEASE COMPRISING A GLYCEOLLIN AS AN ACTIVE INGREDIENT” (KYUNGPOOK NATIONAL UNIVERSITY INDUSTRY-ACADEMIC COOPERATION …, priority 2010, published 2013)", "key": {"[1]": {"system": "Runx2", "assay": "Runx2 protein and mRNA level in MC3T3E1 cells during induction of differentiation", "assay_type": "cell-based, mouse", "description": "(§1) Osteoblasts isolated from calvarial of 18.5 days old mice and mouse MC3T3E1 cells were cultured in alpha-MEM containing 10% FBS at 37° C. in a humidified atmosphere containing 5% CO2. To induce differentiation of osteoblasts and MC3T3E1 cells, 50 μg/ml of ascorbic acid and 10 mM of beta-glycerophosphate are added to alpha-MEM containing 10% FBS. RAW264.7 (murine monocyte/macrophage) cells were cultured in D-MEM containing 10% FBS, and RANKL is added to alpha-MEM containing 10% FBS to induce differentiation to osteoclasts.\n(§2) MC3T3E1 cells were treated with 0, 5, 10, 25 and 50 μM of glyceollin during induction of cellular differentiation. RAW264.7 cells were treated with 0, 5, 10 and 25 μM of glyceollin during induction of cellular differentiation. Osteoblasts isolated from mouse calvarial were treated with 0, 10 and 20 μM of glyceollin during induction of cellular differentiation. Osteoporosis mice induced by high dose vitamin D were daily injected 0, 0.5 and 5 μg/kg of glyceollin for 9 days.\n(§3) To investigate the function of glyceollin on osteoblasts proliferation, morphology and number of glyceollin-treated MC3T3E1 cells were analyzed and MTT analysis was carried out.\nTo investigate whether the decrease of Runx2 protein is due to decrease of Runx2 mRNA, mRNA expression patterns were measured after treatment of glyceollin.\nThe Runx2 protein level decreased by glyceollin was recovered by MG132 (FIG. 1f)."}, "[2]": {"system": "osteoporosis mouse model", "assay": "Osteoporosis mouse model induced by high dose vitamin D (micro CT, Trichrome staining, TRAP staining of calvarial)", "assay_type": "in vivo, mice (C57BL/6)", "description": "Normal mice (C57BL/6) were subcutaneously injected with high dose vitamin D (60×10^4 IU/kg) to obtain osteoporosis mouse model, and monitored during 10 days after first injection. High dose vitamin D activates osteoclasts to reduce mouse bone mass.\nas §2\nTo elucidate in vivo inhibitory effect of glyceollin on differentiation of osteoclasts which had been confirmed in vitro, osteoporosis mouse model injected with high dose vitamin D one time a day for 3 days. The mice treated with glyceollins one time a day for 9 days were sacrificed at 10 days after first injection and calvarial was observed by micro CT analysis, Trichrome staining and TRAP staining."}, "[3]": {"system": "osteoblasts isolated from mouse calvarial", "assay": "Osteoblast differentiation by ALP staining, Alizarin Red staining and calcium contents", "assay_type": "cell-based", "conditions": "0, 10 and 20 μM glyceollin", "description": "as §1, §2\nOsteoblasts isolated from mouse calvarial were treated with 0, 10 and 20 μM of glyceollin during induction of cellular differentiation, and differentiation was analyzed by ALP staining (7 days after differentiation) and Alizarin Red staining (21 days after differentiation).\nIn addition, calcium contents of osteoblasts (21 days after differentiation) were measured and reduction of calcium was observed as glyceollin concentration increased (FIG. 3c)."}, "[4]": {"system": "RAW264.7 cells", "assay": "Differentiation of RAW264.7 cells to osteoclasts by TRAP staining", "assay_type": "cell-based, murine", "conditions": "RANKL-induced, 0, 5, 10 and 25 μM glyceollin, TRAP stained 4 days after", "description": "as §1, §2\nRAW264.7 cells were treated with 0, 5, 10 and 25 μM of glyceollin during induction of differentiation, and then TRAP stained 4 days after to analyze osteoclasts."}, "[5]": {"system": "osteoblasts isolated from mouse calvarial", "assay": "Proteins and mRNAs related to osteoblast differentiation (Runx2, osteocalcin, Rankl, Opg) in osteoblasts isolated from mouse calvarial", "assay_type": "cell-based", "description": "as §1, §2\nProteins and mRNAs related to osteoblast differentiation were measured in osteoblasts isolated from mouse calvarial which were treated with 0, 10 and 20 μM of glyceollin.\nConsequently, Rankl/Opg ratio was decreased by glyceollins in osteoblast differentiation (FIG. 2c)."}, "[6]": {"system": "MC3T3E1 cells", "assay": "Osteoblast proliferation: morphology, cell number and MTT analysis of glyceollin-treated MC3T3E1 cells", "assay_type": "cell-based, mouse", "conditions": "vs untreated cells", "description": "as §1, §3"}, "[7]": {"conditions": "calvarial micro CT, 0, 0.5 and 5 μg/kg glyceollin daily for 9 days, sacrificed at 10 days"}, "[8]": {"conditions": "calvarial, osteoporosis mouse model by high dose vitamin D"}, "[9]": {"conditions": "mouse calvarial osteoblasts, 0, 10 and 20 μM glyceollin"}, "[10]": {"conditions": "mouse calvarial osteoblasts, real-time PCR, 0, 10 and 20 μM glyceollin, listed as glyceollins"}, "[11]": {"conditions": "10 and 20 μM glyceollin during cellular proliferation"}}, "note": "Entries after “also recorded” stand apart in the source; their conditions may differ. Peptide text beside a SMILES is read from it. * marks the point of attachment. Cbz = O=C(OCc1ccccc1)*", "data": [{"compound": "CC(C)C[C@@H](C=O)NC(=O)[C@H](CC(C)C)NC(=O)[C@H](CC(C)C)NC(=O)OCc1ccccc1", "note": "[MG132, reference compound] (Cbz-Leu-Leu-Leu-aldehyde)", "values": [{"measurement": "Runx2 protein level decreased by glyceollin, after further treatment with proteasome inhibitor", "setting": "[1]; MC3T3E1 cells, 20 μM glyceollin plus MG132 vs 20 μM glyceollin only", "value": "recovered"}]}, {"compound": "glyceollin", "values": [{"measurement": "osteoporosis of mouse calvarial mediated by high dose vitamin D (BMC, BMD and TMD analysis after CT)", "setting": "[2]; administration of glyceollin", "value": "recovered"}, {"measurement": "bone mineral contents (BMC)", "setting": "[2]; [7]", "value": "increased by glyceollin in dose-dependent manner"}, {"measurement": "bone mineral density (BMD)", "setting": "[2]; [7]", "value": "increased by glyceollin in dose-dependent manner"}, {"measurement": "tissue mineral contents (TMC)", "setting": "[2]; [7]", "value": "increased by glyceollin in dose-dependent manner"}, {"measurement": "collagen generation (Trichrome staining)", "setting": "[2]; [8]", "value": "increased"}, {"measurement": "number of osteoclasts (TRAP staining)", "setting": "[2]; [8]", "value": "decrease"}, {"measurement": "Runx2 protein level", "setting": "[1]; MC3T3E1 cells, 0, 5, 10, 25 and 50 μM glyceollin during induction of differentiation", "value": "decreased as the concentration of glyceollin increased"}, {"measurement": "Runx2 mRNA level", "setting": "[1]; MC3T3E1 cells, 10 and 20 μM glyceollin during induction of differentiation", "value": "not changed; also recorded: not affected"}, {"measurement": "differentiation of osteoblast by ALP staining", "setting": "[3]; 7 days after differentiation", "value": "inhibited by glyceollin in dose-dependent manner"}, {"measurement": "calcium contents of osteoblasts", "setting": "[3]; 21 days after differentiation", "value": "decreased as the concentration of glyceollin increased; also recorded: reduction"}, {"measurement": "differentiation of osteoblast by Alizarin Red staining", "setting": "[3]; 21 days after differentiation", "value": "inhibited according to the concentration of glyceollin; also recorded: inhibited by glyceollin in dose-dependent manner"}, {"measurement": "differentiation to osteoclasts (TRAP stained osteoclasts)", "setting": "[4]", "value": "inhibited as the concentration of glyceollin increased; also recorded: reduced by glyceollin in dose-dependent manner"}, {"measurement": "Runx2 mRNA level", "setting": "[5]; [9]", "value": "not changed; also recorded: not affected"}, {"measurement": "osteocalcin mRNA level (differentiation marker of osteoblasts)", "setting": "[5]; [9]", "value": "decreased according to the concentration of glyceollin; also recorded: Dose-dependent reduction"}, {"measurement": "Runx2 protein level", "setting": "[5]; mouse calvarial osteoblasts, 0, 10 and 20 μM glyceollin, D21", "value": "decreased by glyceollin in dose-dependent manner"}, {"measurement": "Rankl/Opg ratio", "setting": "[5]; mouse calvarial osteoblasts, osteoblast differentiation", "value": "decreased"}, {"measurement": "Rankl mRNA level", "setting": "[5]; mouse calvarial osteoblasts, real-time PCR, 0, 10 and 20 μM glyceollin", "value": "decreased according to the concentration of glyceollin"}, {"measurement": "Opg mRNA level", "setting": "[5]; [10]", "value": "not affected or slightly increased"}, {"measurement": "Rankl mRNA level", "setting": "[5]; [10]", "value": "down-regulated"}, {"measurement": "morphology of MC3T3E1 cells", "setting": "[6]; 20 μM glyceollin during cellular proliferation", "value": "similar; also recorded: no significant difference"}, {"measurement": "MTT assay for MC3T3-E1 cells", "setting": "[6]; [11]", "value": "similar; also recorded: no significant difference"}, {"measurement": "number of MC3T3E1 cells", "setting": "[6]; [11]", "value": "similar; also recorded: no significant difference"}]}]}
